In patent US11802133B2, “Heterocyclic compounds as monoacylglycerol lipase inhibitors” (Hoffmann-La Roche Inc., priority 2018, dated 2023) one finds IC50 data, which are given here for 46 molecules.

Chain of MAGL (recombinant wild-type) (Q99685 whole entry, species assumed): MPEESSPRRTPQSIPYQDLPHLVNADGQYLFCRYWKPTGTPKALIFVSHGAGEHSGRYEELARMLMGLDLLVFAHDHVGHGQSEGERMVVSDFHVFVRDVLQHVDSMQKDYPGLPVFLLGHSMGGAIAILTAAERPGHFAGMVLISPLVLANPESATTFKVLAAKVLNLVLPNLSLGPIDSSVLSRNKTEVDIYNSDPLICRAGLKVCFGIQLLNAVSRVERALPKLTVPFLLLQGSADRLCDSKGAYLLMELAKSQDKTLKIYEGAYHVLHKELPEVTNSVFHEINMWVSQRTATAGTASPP

This test addresses MAGL (recombinant wild-type) (Homo sapiens (Human), UniProt Q99685). Nature of the test: 4-NPA assay: MAGL inhibitory activity by hydrolysis of 4-nitrophenylacetate (absorbance at 405 nm). The settings on record: measured in 4-NPA assay (footnote [a]); 1 nM MAGL, 300 μM 4-nitrophenylacetate. In kind it is biochemical. On the procedure:
This assay is hereinafter abbreviated “4-NPA assay”.
The plate was shaked for 1 min at 2000 rpm (Variomag Teleshake) and then incubated for 15 min at RT. […] The final concentrations in the assay were 1 nM MAGL and 300 μM 4-Nitrophenylacetate. […] A second measurement was then done after incubation for 80 min at RT. From the two measurements, the slope was calculated by subtracting the first from the second measurement.
Take `O=C1CO[C@H]2CCN(C(=O)N3CCN(Cc4ccc(C(F)(F)F)cc4)CC3)C[C@H]2N1` (racemic) [Example 21, rac-(4aR,8aS)-6-(4-(4-(Trifluoromethyl)benzyl)piperazine-1-carbonyl)hexahydro-2H-pyrido[4,3-b][1,4]oxazin-3(4H)-one]: the half-inhibitory concentration (IC50) (commonly the concentration that gives 50% inhibition) was found to be 909 nM. To `C[C@H]1O[C@H]2CCN(C(=O)N3CCC(Cc4ccc(C(F)(F)F)cc4)CC3)C[C@H]2NC1=O` [Example 67] belongs 120 nM; to `O=C1CO[C@H]2CCN(C(=O)N3CCC(COc4ccc(OC(F)(F)F)cc4Cl)CC3)C[C@H]2N1` [Example 46], 5 nM. For the molecule `O=C1CO[C@@H]2CCN(C(=O)N3CCC(COc4ccc(F)cc4F)CC3)C[C@@H]2N1` [Example 49], the concentration for half-maximal inhibition (IC50) stood at 363 nM. With `O=C1CO[C@H]2CCN(C(=O)N3CC(OCc4ccc(C(F)(F)F)cc4F)C3)C[C@H]2N1` [Example 29], the half-maximal inhibitory concentration (IC50) turned out to be 5 nM.

Turning to `O=C1CO[C@H]2CCN(C(=O)N3CC(OCc4ccc(C(F)(F)F)cc4Cl)C3)C[C@H]2N1` [Example 75], the half-maximal inhibitory concentration (IC50) was 2 nM. For `O=C1CO[C@H]2CCN(C(=O)N3CCC(Cc4ccc(C(F)(F)F)cc4C4CCCC4)CC3)C[C@H]2N1` [Example 58], the IC50 was 3 nM.

In the case of `O=C1CO[C@H]2CCN(C(=O)N3CCC(Cc4ccc(C(F)(F)F)cc4N4CCCC4)CC3)C[C@H]2N1` [Example 53], the half-maximal inhibitory concentration (IC50) was determined as 6 nM.

For the molecule `CC1C(OCc2ccc(C(F)(F)F)cc2)CN1C(=O)N1CC[C@@H]2OCC(=O)N[C@@H]2C1` (stereo partly drawn) [Example 105, (4aR,8aS)-6-[2-Methyl-3-[[4-(trifluoromethyl)phenyl]methoxy]azetidine-1-carbonyl]-4,4a,5,7,8,8a-hexahydropyrido[4,3-b][1,4]oxazin-3-one], the IC50 stood at 285 nM. To `O=C1CO[C@H]2CCN(C(=O)N3CCC(Cc4ccc(C(F)(F)F)cn4)CC3)C[C@H]2N1` [Example 25] belongs 452 nM. As to `O=C1CO[C@H]2CCN(C(=O)N3CCC(F)(COc4ccc(F)cc4Cl)CC3)C[C@H]2N1` [Example 64, (4aR,8aS)-6-(4-((2-Chloro-4-fluorophenoxy)methyl)-4-fluoropiperidine-1-carbonyl)hexahydro-2H-pyrido[4,3-b][1,4]oxazin-3(4H)-one], the IC50 amounted to 40 nM. For `N#Cc1cc(F)ccc1OCC1CCN(C(=O)N2CC[C@@H]3OCC(=O)N[C@@H]3C2)CC1` [Example 55], the 50% inhibitory concentration (IC50) is 79 nM.

Turning to `O=C1CO[C@H]2CCN(C(=O)N3CCC(OCc4cccc(Cl)c4)C3)C[C@H]2N1` (stereo partly shown) [Example 94], the half-inhibitory concentration (IC50) amounted to 150 nM. To `CC(C)(C)c1coc(CC2CCN(C(=O)N3CC[C@@H]4OCC(=O)N[C@@H]4C3)CC2)n1` [Example 2] belongs 46 nM; to `O=C1CO[C@H]2CCN(C(=O)N3CCC(COc4ccc(F)cc4F)CC3)C[C@H]2N1` [Example 32], 20 nM. To `O=C1CO[C@H]2CCN(C(=O)N3CCC(COc4ccc(Cl)cc4)CC3)C[C@H]2N1` [Example 9] belongs 35 nM; to `O=C1CO[C@H]2CCN(C(=O)N3CCC(Cn4cnc(C(F)(F)F)c4)CC3)C[C@H]2N1` [Example 60], 680 nM; to `O=C1CO[C@H]2CCN(C(=O)N3CCC(COc4ccc(C(F)(F)F)cc4F)CC3)C[C@H]2N1` [Example 52], 58 nM.

As for `O=C1CO[C@H]2CCN(C(=O)N3CCC(Cc4ccc(C(F)(F)F)cc4)C3)C[C@H]2N1` (stereo partly shown) [Example 100], the IC50 is 82 nM. As to `O=C1CO[C@H]2CCN(C(=O)N3CCC(Oc4ccc(C(F)(F)F)cc4)CC3)C[C@H]2N1` [Example 12, (+)- or (−)-(4aR,8aS)-6-(4-(4-(Trifluoromethyl)phenoxy)piperidine-1-carbonyl)hexahydro-2H-pyrido[4,3-b][1,4]oxazin-3(4H)-one], the concentration for half-maximal inhibition (IC50) amounted to 77 nM. To `O=C1CO[C@H]2CCN(C(=O)N3CCN(Cc4ccc(C(F)(F)F)cc4N4CCCC4)CC3)C[C@H]2N1` [Example 56] belongs 42 nM; to `CC1(COc2ccc(F)cc2Cl)CCN(C(=O)N2CC[C@@H]3OCC(=O)N[C@@H]3C2)CC1` [Example 79, (4aR,8aS)-6-(4-((2-chloro-4-fluorophenoxy)methyl)-4-methylpiperidine-1-carbonyl)hexahydro-2H-pyrido[4,3-b][1,4]oxazin-3(4H)-one], 1 nM. The figure for `O=C1CO[C@H]2CCN(C(=O)N3CCC(Cc4nc5ccccc5o4)CC3)C[C@H]2N1` [Example 72] is 108 nM; for `CC1C(OCc2ccc(C(F)(F)F)cc2)CN1C(=O)N1CC[C@@H]2OCC(=O)N[C@@H]2C1` (single isomer, unassigned) [Example 103] it is 5 nM. Consider `O=C1CO[C@H]2CCN(C(=O)N3CCC(Cc4ccc(OC(F)(F)F)cc4)CC3)C[C@H]2N1` [Example 31], for which the concentration for half-maximal inhibition (IC50) turned out to be 49 nM. To `O=C1CO[C@H]2CCN(C(=O)N3CCC(Cc4ccc(C(F)(F)F)cc4C4CC4)CC3)C[C@H]2N1` [Example 95] belongs 8 nM.

As to `CC1C(OCc2ccc(C(F)(F)F)cc2)CN1C(=O)N1CC[C@@H]2OCC(=O)N[C@@H]2C1` (single isomer, unassigned) [Example 104], the half-maximal inhibitory concentration (IC50) came out at 451 nM. Turning to `O=C1CO[C@H]2CCN(C(=O)N3CC(OCc4ccc(OC(F)(F)F)cc4F)C3)C[C@H]2N1` [Example 77], the IC50 amounted to 16 nM. Take `O=C1CO[C@H]2CCN(C(=O)N3CCC(Cc4ccc(C(F)(F)F)cc4)CC3)C[C@H]2N1` (racemic) [Example 11, rac-(4aR,8aS)-6-[4-[[4-(Trifluoromethyl)phenyl]methyl]piperidine-1-carbonyl]-4,4a,5,7,8,8a-hexahydropyrido[4,3-b][1,4]oxazin-3-one]: the IC50 was 42 nM. `O=C1CO[C@H]2CCN(C(=O)N3CCC(COc4ccccc4)CC3)C[C@H]2N1` [Example 15]: the IC50 was determined as 190 nM. For `O=C1CO[C@H]2CCN(C(=O)N3CCC(Cc4ccc(C(F)(F)F)cc4-c4cn[nH]c4)CC3)C[C@H]2N1` [Example 81], the IC50 stood at 6 nM. Consider `CC1(COc2ccc(F)cc2Cl)CCN(C(=O)N2CC[C@H]3OCC(=O)N[C@H]3C2)CC1` [Example 48], for which the IC50 is 288 nM. With `N#Cc1ccc(OCC2CCN(C(=O)N3CC[C@@H]4OCC(=O)N[C@@H]4C3)CC2)c(Cl)c1` [Example 59], the 50% inhibitory concentration (IC50) came out at 12 nM.

With `O=C1CO[C@H]2CCN(C(=O)N3CCC(Cc4ccc(Cl)cc4)CC3)C[C@H]2N1` [Example 35], the concentration for half-maximal inhibition (IC50) stood at 19 nM. The figure for `O=C1CO[C@H]2CCN(C(=O)N3CCC(CN4CCC(F)(F)CC4)CC3)C[C@H]2N1` [Example 37, (4aR,8aS)-6-(4-((4,4-Difluoropiperidin-1-yl)methyl)piperidine-1-carbonyl)hexahydro-2H-pyrido[4,3-b][1,4]oxazin-3(4H)-one] is 1300 nM. The figure for `O=C1CO[C@@H]2CCN(C(=O)N3CCC(COc4ccc(OC(F)(F)F)cc4Cl)CC3)C[C@@H]2N1` [Example 45] is 850 nM.

Regarding `O=C1CO[C@@H]2CCN(C(=O)N3CC(OCc4ccc(C(F)(F)F)cc4F)C3)C[C@@H]2N1` [Example 30], the 50% inhibitory concentration (IC50) came to 273 nM. With `O=C1CO[C@H]2CCN(C(=O)N3CC(OCc4cc(F)cc(C(F)(F)F)c4)C3)C[C@H]2N1` [Example 101], the IC50 was 11 nM. For the molecule `O=C1CO[C@H]2CCN(C(=O)N3CC(COc4ccc(F)cc4Cl)C3)C[C@H]2N1` [Example 57], the half-maximal inhibitory concentration (IC50) turned out to be 49 nM.

For `Cc1cc(C(F)(F)F)ccc1CC1CCN(C(=O)N2CC[C@@H]3OCC(=O)N[C@@H]3C2)CC1` [Example 98], the IC50 is 10 nM.

Regarding `O=C1CO[C@H]2CCN(C(=O)N3CCC(Oc4ccc(Cl)c(-c5ccc(Cl)cc5)c4)CC3)C[C@H]2N1` [Example 73], the half-maximal inhibitory concentration (IC50) came out at 8 nM. Regarding `C[C@H]1CN(C(=O)N2CC[C@@H]3OCC(=O)N[C@@H]3C2)CC[C@H]1COc1ccc(F)cc1Cl` [Example 74], the 50% inhibitory concentration (IC50) was 3 nM. In the case of `CC(C)(C)c1cnc(CC2CCN(C(=O)N3CC[C@@H]4OCC(=O)N[C@@H]4C3)CC2)o1` [Example 38], the concentration for half-maximal inhibition (IC50) came out at 160 nM. To `O=C1CO[C@H]2CCN(C(=O)N3CCC(COc4ccc(Cl)cc4F)CC3)C[C@H]2N1` [Example 50] belongs 8 nM. The figure for `O=C1CO[C@H]2CCN(C(=O)N3CCC(OCc4ccc(Cl)cc4)C3)C[C@H]2N1` (stereo partly shown) [Example 97] is 146 nM; for `O=C1CO[C@@H]2CCN(C(=O)N3CCC(COc4ccc(F)cc4Cl)CC3)C[C@@H]2N1` [Example 23] it is 856 nM.
